In patent publication US20240368173A1, “TRICYCLIC GPR65 MODULATORS” (PATHIOS THERAPEUTICS LIMITED, priority 2021, published 2024):

What follows are compounds tested against human recombinant GPR65 (Homo sapiens, UniProt Q8IYL9) (assay: Human GPR65 cAMP HTRF antagonist assay). Conditions: not given.
Type: cell-based
Outline: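 Antagonism measured as suppression of the cAMP rise when pH is dropped to 7.2 (control wells pH 7.9) in 1321N1 cells stably carrying human GPR65. Cells in KRH with 1 mM IBMX and 200 μM EDTA saw compound 30 min, then acid stimulation 30 min; HTRF cAMP detection, normalised, 4-parameter logistic IC50.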

Sequence of human recombinant GPR65 (Q8IYL9 whole entry): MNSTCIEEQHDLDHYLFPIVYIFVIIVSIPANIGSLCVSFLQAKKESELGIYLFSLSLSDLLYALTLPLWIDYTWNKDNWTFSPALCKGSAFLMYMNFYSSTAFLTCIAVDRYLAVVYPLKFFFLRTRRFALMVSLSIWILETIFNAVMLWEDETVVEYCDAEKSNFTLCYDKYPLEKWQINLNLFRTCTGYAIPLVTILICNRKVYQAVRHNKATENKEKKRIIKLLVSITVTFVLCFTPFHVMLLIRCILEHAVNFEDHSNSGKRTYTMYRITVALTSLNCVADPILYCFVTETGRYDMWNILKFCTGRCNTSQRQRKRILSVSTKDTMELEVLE

| Structure (SMILES) | IC50 |
| --- | --- |
| O=C(Nc1cc(Cl)c(-c2ccccn2)cc1F)N1[C@H]2CC[C@@H]1c1n[nH]c(=O)cc1C2 [Compound 195, (6S,9R)-N-(5-Chloro-2-fluoro-4-(pyridin-2-yl)phenyl)-3-oxo-3,5,6,7,8,9-hexahydro-2H-6,9-epiminocyclohepta[c]pyridazine-10-carboxamide] | < 500 nM |
| N#Cc1nccc2c1C[C@@H]1CC[C@H]2N1C(=O)Nc1cc(Cl)c(Cl)cc1F [Compound 92, (5R,8S)-1-Cyano-N-(4,5-dichloro-2-fluorophenyl)-6,7,8,9-tetrahydro-5H-5,8-epiminocyclohepta[c]pyridine-10-carboxamide] | < 500 nM |
| CN1C(=O)Cc2ccc(-c3cc(F)c(NC(=O)N4[C@H]5CC[C@@H]4c4n[nH]c(=O)cc4C5)cc3Cl)cc21 [Compound 163, (6S,9R)-N-(5-Chloro-2-fluoro-4-(1-methyl-2-oxoindolin-6-yl)phenyl)-3-oxo-3,5,6,7,8,9-hexahydro-2H-6,9-epiminocyclohepta[c]pyridazine-10-carboxamide] | < 500 nM |
| O=C(Nc1ccc(C(F)(F)F)c(Br)c1)N1C2CCC1c1n[nH]c(=O)cc1C2 (racemic) [Compound 3, (±)-N-(3-Bromo-4-(trifluoromethyl)phenyl)-3-oxo-3,5,6,7,8,9-hexahydro-2H-6,9-epiminocyclohepta[c]pyridazine-10-carboxamide] | < 500 nM |
| O=C(Nc1cc(Cl)c(C(F)(F)F)cc1F)N1[C@H]2CC[C@@H]1c1ccnnc1C2 [Compound 85, (5R,8S)-N-(5-Chloro-2-fluoro-4-(trifluoromethyl)phenyl)-6,7,8,9-tetrahydro-5H-5,8-epiminocyclohepta[c]pyridazine-10-carboxamide] | < 500 nM |
| O=C(Nc1cc(Cl)c(Cl)cc1F)N1[C@H]2CC[C@@H]1c1n[nH]c(=O)cc1C2 [Compound 20, (6S,9R)-N-(4,5-Dichloro-2-fluorophenyl)-3-oxo-3,5,6,7,8,9-hexahydro-2H-6,9-epiminocyclohepta[c]pyridazine-10-carboxamide] | < 500 nM |
| COc1cc(-c2cc(F)c(NC(=O)N3[C@H]4CC[C@@H]3c3ccnc(F)c3C4)cc2Cl)ccn1 [Compound 264, (5R,8S)-N-(5-Chloro-2-fluoro-4-(2-methoxypyridin-4-yl)phenyl)-1-fluoro-6,7,8,9-tetrahydro-5H-5,8-epiminocyclohepta[c]pyridine-10-carboxamide] | < 500 nM |
| CC(C)Oc1cc(-c2cc(F)c(NC(=O)N3[C@H]4CC[C@@H]3c3n[nH]c(=O)cc3C4)cc2Cl)ccn1 [Compound 218, (6S,9R)-N-(5-Chloro-2-fluoro-4-(2-isopropoxypyridin-4-yl)phenyl)-3-oxo-3,5,6,7,8,9-hexahydro-2H-6,9-epiminocyclohepta[c]pyridazine-10-carboxamide] | < 500 nM |
| COc1ccc(-c2cc(F)c(NC(=O)N3[C@H]4CC[C@@H]3c3n[nH]c(=O)cc3C4)cc2C(F)(F)F)cn1 [Compound 213, (6S,9R)-N-(2-Fluoro-4-(6-methoxypyridin-3-yl)-5-(trifluoromethyl)phenyl)-3-oxo-3,5,6,7,8,9-hexahydro-2H-6,9-epiminocyclohepta[c]pyridazine-10-carboxamide] | < 500 nM |
| O=C(Nc1cc(Cl)c(-c2ccc(OCC(F)(F)F)nc2)cc1F)N1C2CCC1C(F)(F)c1c2ccnc1F (racemic) [Compound 290, (±)-N-(5-Chloro-2-fluoro-4-(6-(2,2,2-trifluoroethoxy)pyridin-3-yl)phenyl)-1,9,9-trifluoro-6,7,8,9-tetrahydro-5H-5,8-epiminocyclohepta[c]pyridine-10-carboxamide] | < 500 nM |
| O=C(Nc1cc(C(F)(F)F)c(-c2cnc3nonc3c2)cc1F)N1[C@H]2CC[C@@H]1c1n[nH]c(=O)cc1C2 [Compound 269, (6S,9R)-N-(4-([1,2,5]Oxadiazolo[3,4-b]pyridin-6-yl)-2-fluoro-5-(trifluoromethyl)phenyl)-3-oxo-3,5,6,7,8,9-hexahydro-2H-6,9-epiminocyclohepta[c]pyridazine-10-carboxamide] | < 500 nM |
| O=C(Nc1cc(Cl)c(-c2ccc(OCCC(F)(F)F)nc2)cc1F)N1[C@H]2CC[C@@H]1c1c[nH]c(=O)cc1C2 [Compound 332, (6S,9R)-N-(5-Chloro-2-fluoro-4-(6-(3,3,3-trifluoropropoxy)pyridin-3-yl)phenyl)-3-oxo-3,5,6,7,8,9-hexahydro-2H-6,9-epiminocyclohepta[c]pyridine-10-carboxamide] | < 500 nM |
| O=C(Nc1cc(Cl)c(-c2ccc(OC(CF)CF)nc2)cc1F)N1[C@H]2CC[C@@H]1c1n[nH]c(=O)cc1C2 [Compound 307, (6S,9R)-N-(5-Chloro-4-(6-((1,3-difluoropropan-2-yl)oxy)pyridin-3-yl)-2-fluorophenyl)-3-oxo-3,5,6,7,8,9-hexahydro-2H-6,9-epiminocyclohepta[c]pyridazine-10-carboxamide] | < 500 nM |
| Cc1nc2ccc(-c3cc(F)c(NC(=O)N4[C@H]5CC[C@@H]4c4c[nH]c(=O)cc4C5)cc3Cl)cc2o1 [Compound 206, (6S,9R)-N-(5-Chloro-2-fluoro-4-(2-methylbenzo[d]oxazol-6-yl)phenyl)-3-oxo-3,5,6,7,8,9-hexahydro-2H-6,9-epiminocyclohepta[c]pyridine-10-carboxamide] | < 500 nM |
| O=C(Nc1cc(Cl)c(-c2ccc(OCC(F)(F)F)nc2)cc1F)N1[C@H]2CC[C@@H]1c1ccnc(F)c1C2 [Compound 240, (5R,8S)-N-(5-Chloro-2-fluoro-4-(6-(2,2,2-trifluoroethoxy)pyridin-3-yl)phenyl)-1-fluoro-6,7,8,9-tetrahydro-5H-5,8-epiminocyclohepta[c]pyridine-10-carboxamide] | < 500 nM |
| O=C(Nc1cc(Cl)c(-c2ccc(OC(F)F)nc2)cc1F)N1[C@H]2CC[C@@H]1c1n[nH]c(=O)cc1C2 [Compound 315, (6S,9R)-N-(5-Chloro-4-(6-(difluoromethoxy)pyridin-3-yl)-2-fluorophenyl)-3-oxo-3,5,6,7,8,9-hexahydro-2H-6,9-epiminocyclohepta[c]pyridazine-10-carboxamide] | < 500 nM |
| O=C(Nc1cc(Cl)c(-c2ccc3nonc3c2)cn1)N1[C@H]2CC[C@@H]1c1n[nH]c(=O)cc1C2 [Compound 238, (6S,9R)-N-(5-(Benzo[c][1,2,5]oxadiazol-5-yl)-4-chloropyridin-2-yl)-3-oxo-3,5,6,7,8,9-hexahydro-2H-6,9-epiminocyclohepta[c]pyridazine-10-carboxamide] | < 500 nM |
| COc1ccc(-c2cc(F)c(NC(=O)N3[C@H]4CC[C@@H]3c3ccnc(F)c3C4)cc2F)cn1 [Compound 245, (5R,8S)-N-(2,5-Difluoro-4-(6-methoxypyridin-3-yl)phenyl)-1-fluoro-6,7,8,9-tetrahydro-5H-5,8-epiminocyclohepta[c]pyridine-10-carboxamide] | < 500 nM |
| CN(C)CCOc1ccc(-c2cc(F)c(NC(=O)N3[C@H]4CC[C@@H]3c3ccnc(F)c3C4)cc2Cl)cn1 [Compound 301, (5R,8S)-N-(5-Chloro-4-(6-(2-(dimethylamino)ethoxy)pyridin-3-yl)-2-fluorophenyl)-1-fluoro-6,7,8,9-tetrahydro-5H-5,8-epiminocyclohepta[c]pyridine-10-carboxamide] | < 500 nM |
| O=C(Nc1cc(Cl)c(-c2cccnc2F)cc1F)N1[C@H]2CC[C@@H]1c1n[nH]c(=O)cc1C2 [Compound 115, (6S,9R)—N-(5-Chloro-2-fluoro-4-(2-fluoropyridin-3-yl)phenyl)-3-oxo-3,5,6,7,8,9-hexahydro-2H-6,9-epiminocyclohepta[c]pyridazine-10-carboxamide] | < 500 nM |
| O=C(Nc1cc(Br)c(C(F)(F)F)cc1F)N1C2CCC1c1c[nH]c(=O)nc1C2 (racemic) [Compound 17, (±)-N-(5-bromo-2-fluoro-4-(trifluoromethyl)phenyl)-2-oxo-3,5,6,7,8,9-hexahydro-2H-5,8-epiminocyclohepta[d]pyrimidine-10-carboxamide] | < 500 nM |
| COc1ncc(-c2cc(F)c(NC(=O)N3[C@H]4CC[C@@H]3c3n[nH]c(=O)cc3C4)cc2Cl)cn1 [Compound 281, (6S,9R)-N-(5-Chloro-2-fluoro-4-(2-methoxypyrimidin-5-yl)phenyl)-3-oxo-3,5,6,7,8,9-hexahydro-2H-6,9-epiminocyclohepta[c]pyridazine-10-carboxamide] | < 500 nM |

Same assay, conditions: 1321N1-hrGPR65 cells, cAMP HTRF, assay pH 7.2; read-out: hGPR65 IC50 (Activity of selected compounds according to the invention)

| Structure (SMILES) | IC50 |
| --- | --- |
| O=C(Nc1cc(Cl)c(Cl)cc1F)N1[C@H]2CC[C@@H]1c1ccnc(C(F)F)c1C2 [Compound 89, (5R,8S)-N-(4,5-Dichloro-2-fluorophenyl)-1-(difluoromethyl)-6,7,8,9-tetrahydro-5H-5,8-epiminocyclohepta[c]pyridine-10-carboxamide] | 500 to 5000 nM |
| O=C(Nc1cc(Br)c(Cl)cc1F)N1[C@@H]2CC[C@H]1c1c[nH]c(=O)nc1C2 [Compound 27, (5S,8R)-N-(5-Bromo-4-chloro-2-fluorophenyl)-2-oxo-3,5,6,7,8,9-hexahydro-2H-5,8-epiminocyclohepta[d]pyrimidine-10-carboxamide] | 500 to 5000 nM |
| O=C(Nc1cc(Cl)c(C2(O)CC2)cc1F)N1[C@H]2CC[C@@H]1c1ccnc(F)c1C2 [Compound 68, (5R,8S)-N-(5-Chloro-2-fluoro-4-(1-hydroxycyclopropyl)phenyl)-1-fluoro-6,7,8,9-tetrahydro-5H-5,8-epiminocyclohepta[c]pyridine-10-carboxamide] | 500 to 5000 nM |
| N#Cc1cnc(NC(=O)N2C3CCC2c2n[nH]c(=O)cc2C3)cc1Cl (racemic) [Compound 43, (±)-N-(4-Chloro-5-cyanopyridin-2-yl)-3-oxo-3,5,6,7,8,9-hexahydro-2H-6,9-epiminocyclohepta[c]pyridazine-10-carboxamide] | 500 to 5000 nM |
| O=C1COc2ccc(-c3cc(F)c(NC(=O)N4[C@H]5CC[C@@H]4c4n[nH]c(=O)cc4C5)cc3Cl)cc2N1 [Compound 146, (6S,9R)-N-(5-Chloro-2-fluoro-4-(3-oxo-3,4-dihydro-2H-benzo[b][1,4]oxazin-6-yl)phenyl)-3-oxo-3,5,6,7,8,9-hexahydro-2H-6,9-epiminocyclohepta[c]pyridazine-10-carboxamide] | 500 to 5000 nM |
